Source: article PMC6272684, “Synthesis, Antiproliferative and Antifungal Activities of 1,2,3-Triazole-Substituted Carnosic Acid and Carnosol Derivatives” (Molecules, 2015)

Columns and labels:
[1] = tested on: lung cancer (SK-MES-1) cells; test: Antiproliferative assay (MTT reduction, 3 days); type: cell-based, human; settings: >100 µM considered inactive, read-out: IC50 ± SD, SK-MES-1
Method: (§1) The antiproliferative activity towards the following human cell lines was determined: normal lung fibroblasts (MRC-5), gastric epithelial adenocarcinoma (AGS), lung cancer (SK-MES-1) and bladder carcinoma (J82) cells.
(§2) All human cell lines used in this work were purchased from the American Type Culture Collection (ATCC, Manasas, VA, USA). […] All media were supplemented with 10% heat-inactivated FBS, 100 IU∙mL^−1 penicillin and 100 µg∙mL^−1 streptomycin. Cells were grown in a humidified incubator with 5% CO2 in air at 37 °C. For the antiproliferative assay, cells were plated at a density of 5 × 10^4 cells∙mL^−1. Cells were seeded in 96-well plates (100 µL∙well^−1). One day after seeding, cells were treated with medium containing the compounds at concentrations ranging from 0 up to 100 µM during 3 days. The compounds were dissolved in DMSO (1% final concentration) and complete medium. Untreated cells (medium containing 1% DMSO) were used as 100% viability controls. […] Each concentration was tested in sextuplicate and experiments were repeated 2 times. Cell viability was determined by means of the MTT reduction assay at the end of the incubation with the products. […] The software used was OriginPro 8.1 [30].

[2] = tested on: normal lung fibroblasts (MRC-5); test: Antiproliferative assay (MTT reduction, 3 days); type: cell-based, human; settings: MRC-5 normal fibroblasts, >100 µM considered inactive, read-out: IC50 ± SD, MRC-5
Method: as §1, §2

[3] = tested on: bladder carcinoma (J82) cells; test: Antiproliferative assay (MTT reduction, 3 days); type: cell-based, human; settings: J82 cells, 3 days, MTT; >100 µM considered inactive; read-out: IC50 ± SD, J82
Method: as §1, with “cells. […] When comparing the pairs 3–4, 5–6 and 7–8 differing in one CH2 unit in the linker, the activity decreased with linker length.” for “cells.”
(§3) All human cell lines used in this work were purchased from the American Type Culture Collection (ATCC, Manasas, VA, USA). Normal lung MRC-5 fibroblasts (CCL-171), SK-MES-1 lung cancer cells (HTB-58) and J82 bladder carcinoma cells (HTB-1) were grown as monolayers in minimum essential Eagle medium (MEM) with Earles’s salts, 2 mM L-glutamine and 1.5 g∙L^−1 sodium bicarbonate. Gastric adenocarcinoma AGS cells (CRL-1739) were grown as monolayers in Ham F-12 medium containing 1 mM L-glutamine and 1.5 g∙L^−1 sodium bicarbonate. All media were supplemented with 10% heat-inactivated FBS, 100 IU∙mL^−1 penicillin and 100 µg∙mL^−1 streptomycin. Cells were grown in a humidified incubator with 5% CO2 in air at 37 °C. For the antiproliferative assay, cells were plated at a density of 5 × 10^4 cells∙mL^−1. Cells were seeded in 96-well plates (100 µL∙well^−1). One day after seeding, cells were treated with medium containing the compounds at concentrations ranging from 0 up to 100 µM during 3 days. The compounds were dissolved in DMSO (1% final concentration) and complete medium. Untreated cells (medium containing 1% DMSO) were used as 100% viability controls. […] Each concentration was tested in sextuplicate and experiments were repeated 2 times. Cell viability was determined by means of the MTT reduction assay at the end of the incubation with the products. The results were transformed to percentage of controls and the IC50 value was obtained adjusting the dose-response curve to a sigmoidal model. The software used was OriginPro 8.1 [30].

[4] = tested on: gastric epithelial adenocarcinoma (AGS) cells; test: Antiproliferative assay (MTT reduction, 3 days); type: cell-based, human; settings: >100 µM considered inactive, read-out: IC50 ± SD, AGS
Method: as §1, with “cells. […] When comparing the pairs 3–4, 5–6 and 7–8 differing in one CH2 unit in the linker, the activity decreased with linker length.” for “cells.”
as §3

[5] = tested on: C. albicans ATCC 10231; test: Antifungal broth microdilution (CLSI M27-A3), growth inhibition; type: cell-based, Candida albicans; settings: for MIC50 (minimum concentration to inhibit 50% of fungal growth), C. albicans: C. albicans ATCC 10231
Summary of the method: (§4)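 Yeast inocula (1–5 × 10^3 CFU/mL) were tested by CLSI M27-A3 broth microdilution in RPMI-1640 at 250–3.9 μg∙mL^−1 (DMSO ≤1%) for 48 h at 30 °C in the dark. Growth was read at OD405, and % inhibition was calculated against growth and sterility controls in triplicate. MIC100 is total inhibition; MIC50 is 50% inhibition.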

[6] = tested on: C. neoformans ATCC 32264; test: as above; type: cell-based, Cryptococcus neoformans; settings: for MIC50 (minimum concentration to inhibit 50% of fungal growth), C. neoformans: C. neoformans ATCC 32264
Summary of the method: as §4

IC50 [1] [µM] | IC50 [3] [µM] | IC50 [4] [µM] | MIC50 (minimum concentration to inhibit 50% of fungal growth), C. albicans [5] [µg/mL] | MIC50 (minimum concentration to inhibit 50% of fungal growth), C. neoformans [6] [µg/mL] | SMILES | IC50 [2] [µM] | Inhibition percentage against C. albicans ATCC 10231 ([5]; 3.9 μg∙mL^−1, 48 h) [%] | Inhibition percentage against C. albicans ATCC 10231 ([5]; 7.8 μg∙mL^−1, 48 h) [%] | Inhibition percentage against C. albicans ATCC 10231 ([5]; 15.6 μg∙mL^−1, 48 h) [%] | Inhibition percentage against C. albicans ATCC 10231 ([5]; 62.5 μg∙mL^−1, 48 h) [%] | Inhibition percentage against C. albicans ATCC 10231 ([5]; 125 μg∙mL^−1, 48 h) [%] | Inhibition percentage against C. albicans ATCC 10231 ([5]; 250 μg∙mL^−1, 48 h) [%] | Inhibition percentage against C. albicans ATCC 10231 ([5]; 31. μg∙mL^−1, 48 h) [%] | Inhibition percentage against C. neoformans ATCC 32264 ([6]; 3.9 μg∙mL^−1, 48 h) [%] | Inhibition percentage against C. neoformans ATCC 32264 ([6]; 7.8 μg∙mL^−1, 48 h) [%] | Inhibition percentage against C. neoformans ATCC 32264 ([6]; 15.6 μg∙mL^−1, 48 h) [%] | Inhibition percentage against C. neoformans ATCC 32264 ([6]; 31.2 μg∙mL^−1, 48 h) [%] | Inhibition percentage against C. neoformans ATCC 32264 ([6]; 62.5 μg∙mL^−1, 48 h) [%] | Inhibition percentage against C. neoformans ATCC 32264 ([6]; 125 μg∙mL^−1, 48 h) [%] | Inhibition percentage against C. neoformans ATCC 32264 ([6]; 250 μg∙mL^−1, 48 h) [%]
> 100 | > 100 | > 100 | >250 | >250 | CC(C)c1cc2c3c(c1OC(=O)CCc1cn(Cc4ccc(Br)cc4)nn1)OC(=O)[C@@]31CCCC(C)(C)[C@@H]1CC2 [Compound 5, 12-O-(3-(1-(4-bromobenzyl)-1H-1,2,3-triazol-4-yl)-propanoyloxy)-11,20-epoxyabieta-8,11,13-trien-20-one] | 82.6 ± 6.6 | 0.0 | 0.0 | 0.0 | 4.1 ± 1.7 | 8.3 ± 3.3 | 16.5 ± 1.3 | 3.0 ± 2.7 | 2.3 ± 0.9 | 6.0 ± 0.7 | 7.7 ± 0.6 | 8.7 ± 1.4 | 12.0 ± 1.0 | 12.6 ± 0.5 | 36.9 ± 2.2
> 100 | > 100 | > 100 | >250 | >250 | CC(C)c1cc2c3c(c1OC(=O)CCCc1cn(Cc4ccc(Br)cc4)nn1)OC(=O)[C@@]31CCCC(C)(C)[C@@H]1CC2 [Compound 6, 12-O-(4-(1-(4-bromobenzyl)-1H-1,2,3-triazol-4-yl)-butanoyloxy)-11,20-epoxyabieta-8,11,13-trien-20-one] | > 100 | 0.0 | 1.4 ± 0.4 | 1.5 ± 0.1 | 13.2 ± 1.4 | 19.9 ± 0.5 | 45.4 ± 3.4 | 4.2 ± 0.9 | 0.0 | 0.0 | 0.0 | 5.4 ± 0.7 | 12.7 ± 0.8 | 22.4 ± 1.5 | 41.4 ± 2.7
> 100 | > 100 | 64.3 ± 4.5 | >250 | >250 | CC(C)c1cc2c3c(c1OC(=O)CCc1cn(Cc4ccc([N+](=O)[O-])cc4)nn1)OC(=O)C31CCCC(C)(C)C1CC2 (stereo not drawn) [Compound 7, 12-O-(3-(1-(4-nitrobenzyl)-1H-1,2,3-triazol-4-yl)-propanoyloxy)-11,20-epoxyabieta-8,11,13-trien-20-one] | 60.6 ± 3.6 | 0.0 | 0.9 ± 0.2 | 2.1 ± 0.1 | 2.5 ± 0.5 | 10.5 ± 3.0 | 15.5 ± 1.1 | 2.2 ± 0.7 | 0.0 | 0.0 | 0.0 | 0.0 | 0.0 | 20.0 ± 1.1 | 28.2 ± 2.7
